We go through eleven compounds from ChEMBL document CHEMBL3797164, “Transfer of SAR information from hypotensive indazole to indole derivatives acting at α-adrenergic receptors: In vitro and in vivo studies” (Eur J Med Chem, 2016).

The target of assay [1] is T1, Adrenergic receptor alpha-1 (Rattus norvegicus, UniProt P15823+P23944+P43140).
T1 sequence (P15823 whole entry): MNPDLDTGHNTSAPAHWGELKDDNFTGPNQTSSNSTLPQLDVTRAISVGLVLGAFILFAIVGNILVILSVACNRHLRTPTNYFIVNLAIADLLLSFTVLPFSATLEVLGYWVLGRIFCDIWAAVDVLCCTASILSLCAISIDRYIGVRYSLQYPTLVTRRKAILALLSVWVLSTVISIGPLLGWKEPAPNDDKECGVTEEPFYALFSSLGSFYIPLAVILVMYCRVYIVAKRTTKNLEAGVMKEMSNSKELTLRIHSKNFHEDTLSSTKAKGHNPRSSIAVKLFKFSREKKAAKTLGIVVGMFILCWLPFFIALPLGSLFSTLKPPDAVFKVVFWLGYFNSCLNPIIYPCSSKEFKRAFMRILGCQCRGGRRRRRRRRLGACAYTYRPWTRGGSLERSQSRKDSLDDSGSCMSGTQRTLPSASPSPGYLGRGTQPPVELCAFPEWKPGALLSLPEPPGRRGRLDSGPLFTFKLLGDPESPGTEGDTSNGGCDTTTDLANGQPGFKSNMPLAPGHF
T1 sequence (P23944 whole entry): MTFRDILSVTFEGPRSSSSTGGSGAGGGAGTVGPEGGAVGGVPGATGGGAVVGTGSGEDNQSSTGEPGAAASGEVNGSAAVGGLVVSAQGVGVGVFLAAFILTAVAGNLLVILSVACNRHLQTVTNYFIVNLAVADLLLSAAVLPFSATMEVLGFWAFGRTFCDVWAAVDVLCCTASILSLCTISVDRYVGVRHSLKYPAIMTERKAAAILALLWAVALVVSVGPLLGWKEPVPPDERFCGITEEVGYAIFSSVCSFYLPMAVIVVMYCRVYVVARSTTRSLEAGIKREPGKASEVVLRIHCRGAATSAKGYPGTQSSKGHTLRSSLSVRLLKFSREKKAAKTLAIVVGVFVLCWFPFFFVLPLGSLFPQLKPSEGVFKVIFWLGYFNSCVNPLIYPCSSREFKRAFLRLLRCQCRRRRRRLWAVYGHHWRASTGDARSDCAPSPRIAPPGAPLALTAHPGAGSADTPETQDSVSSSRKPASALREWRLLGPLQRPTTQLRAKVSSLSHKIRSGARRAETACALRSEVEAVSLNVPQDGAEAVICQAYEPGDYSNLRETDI
T1 sequence (P43140 whole entry): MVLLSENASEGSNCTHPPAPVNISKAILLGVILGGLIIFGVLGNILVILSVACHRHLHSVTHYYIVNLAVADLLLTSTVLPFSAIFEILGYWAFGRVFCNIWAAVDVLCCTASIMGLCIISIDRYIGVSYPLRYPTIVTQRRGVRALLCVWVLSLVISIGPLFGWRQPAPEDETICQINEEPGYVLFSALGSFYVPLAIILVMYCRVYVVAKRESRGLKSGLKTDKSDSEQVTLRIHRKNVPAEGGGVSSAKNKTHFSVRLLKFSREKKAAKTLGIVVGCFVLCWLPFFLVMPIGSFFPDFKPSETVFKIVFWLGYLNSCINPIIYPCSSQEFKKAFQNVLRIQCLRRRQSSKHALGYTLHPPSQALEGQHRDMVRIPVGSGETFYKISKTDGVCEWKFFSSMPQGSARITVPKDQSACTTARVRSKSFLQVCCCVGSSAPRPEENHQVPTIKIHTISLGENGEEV
Briefly: Displacement of [3H]prazosine from Alpha-1 adrenergic receptor in Sprague-Dawley rat brain P2 membranes after […] by liquid scintillation counting. For orientation: Displacement assays read how much labelled ligand stays bound in the presence of the test substance.

Assay [2] can be described thus: Displacement of [3H]2BFI from Imidazoline receptor 2 in Sprague-Dawley rat brain P2 membrans after […] by liquid scintillation counting.
Assay [3] addresses Nischarin (Rattus norvegicus, UniProt Q4G017). Briefly: Displacement of [3H]clonidine from Imidazoline receptor 1 in Sprague-Dawley rat kidney P2 membranes after […] by liquid scintillation counting.
Assay [4] addresses T2, Adrenergic receptor alpha-2 (Rattus norvegicus, UniProt P22086+P19328+P22909).
T2 sequence (P22086 whole entry): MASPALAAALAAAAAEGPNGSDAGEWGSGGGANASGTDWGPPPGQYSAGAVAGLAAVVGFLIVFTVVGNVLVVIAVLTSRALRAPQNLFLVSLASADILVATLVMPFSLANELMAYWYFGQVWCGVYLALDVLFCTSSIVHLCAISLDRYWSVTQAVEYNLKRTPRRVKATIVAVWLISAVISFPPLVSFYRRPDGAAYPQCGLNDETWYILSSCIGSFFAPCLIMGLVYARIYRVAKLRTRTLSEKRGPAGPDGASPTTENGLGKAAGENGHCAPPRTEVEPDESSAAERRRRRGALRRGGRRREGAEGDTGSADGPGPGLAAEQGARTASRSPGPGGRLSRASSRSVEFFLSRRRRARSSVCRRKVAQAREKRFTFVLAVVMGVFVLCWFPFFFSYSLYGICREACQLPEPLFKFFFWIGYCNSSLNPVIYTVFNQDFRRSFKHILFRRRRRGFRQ
T2 sequence (P19328 whole entry): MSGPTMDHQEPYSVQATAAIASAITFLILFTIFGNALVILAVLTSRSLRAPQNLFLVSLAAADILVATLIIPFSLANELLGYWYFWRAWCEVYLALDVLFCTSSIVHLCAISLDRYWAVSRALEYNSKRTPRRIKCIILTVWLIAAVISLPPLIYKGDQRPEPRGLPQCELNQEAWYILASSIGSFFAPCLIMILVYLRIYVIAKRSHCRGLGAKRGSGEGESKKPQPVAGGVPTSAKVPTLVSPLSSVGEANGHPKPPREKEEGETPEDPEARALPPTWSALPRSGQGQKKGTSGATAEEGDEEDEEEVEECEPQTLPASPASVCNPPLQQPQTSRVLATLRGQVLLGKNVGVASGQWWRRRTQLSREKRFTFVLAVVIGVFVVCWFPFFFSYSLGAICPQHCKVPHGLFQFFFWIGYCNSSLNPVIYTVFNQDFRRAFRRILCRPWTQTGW
T2 sequence (P22909 whole entry): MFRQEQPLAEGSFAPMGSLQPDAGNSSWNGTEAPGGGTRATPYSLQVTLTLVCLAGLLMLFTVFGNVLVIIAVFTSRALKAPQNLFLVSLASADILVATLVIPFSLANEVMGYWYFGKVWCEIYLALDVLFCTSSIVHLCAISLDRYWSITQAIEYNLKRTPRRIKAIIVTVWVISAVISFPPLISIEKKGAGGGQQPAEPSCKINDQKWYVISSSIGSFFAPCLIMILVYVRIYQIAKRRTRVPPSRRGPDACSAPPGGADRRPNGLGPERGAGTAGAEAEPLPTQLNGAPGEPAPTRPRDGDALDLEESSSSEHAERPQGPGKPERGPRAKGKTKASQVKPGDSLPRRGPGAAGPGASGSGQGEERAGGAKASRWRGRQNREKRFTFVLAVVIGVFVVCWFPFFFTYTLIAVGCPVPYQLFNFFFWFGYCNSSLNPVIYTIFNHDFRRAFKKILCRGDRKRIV
Briefly: Displacement of [3H]RX821002 from Alpha-2 adrenergic receptor in Sprague-Dawley rat brain P2 membranes after […] by liquid scintillation counting.

Nischarin, sequence (Q4G017 whole entry): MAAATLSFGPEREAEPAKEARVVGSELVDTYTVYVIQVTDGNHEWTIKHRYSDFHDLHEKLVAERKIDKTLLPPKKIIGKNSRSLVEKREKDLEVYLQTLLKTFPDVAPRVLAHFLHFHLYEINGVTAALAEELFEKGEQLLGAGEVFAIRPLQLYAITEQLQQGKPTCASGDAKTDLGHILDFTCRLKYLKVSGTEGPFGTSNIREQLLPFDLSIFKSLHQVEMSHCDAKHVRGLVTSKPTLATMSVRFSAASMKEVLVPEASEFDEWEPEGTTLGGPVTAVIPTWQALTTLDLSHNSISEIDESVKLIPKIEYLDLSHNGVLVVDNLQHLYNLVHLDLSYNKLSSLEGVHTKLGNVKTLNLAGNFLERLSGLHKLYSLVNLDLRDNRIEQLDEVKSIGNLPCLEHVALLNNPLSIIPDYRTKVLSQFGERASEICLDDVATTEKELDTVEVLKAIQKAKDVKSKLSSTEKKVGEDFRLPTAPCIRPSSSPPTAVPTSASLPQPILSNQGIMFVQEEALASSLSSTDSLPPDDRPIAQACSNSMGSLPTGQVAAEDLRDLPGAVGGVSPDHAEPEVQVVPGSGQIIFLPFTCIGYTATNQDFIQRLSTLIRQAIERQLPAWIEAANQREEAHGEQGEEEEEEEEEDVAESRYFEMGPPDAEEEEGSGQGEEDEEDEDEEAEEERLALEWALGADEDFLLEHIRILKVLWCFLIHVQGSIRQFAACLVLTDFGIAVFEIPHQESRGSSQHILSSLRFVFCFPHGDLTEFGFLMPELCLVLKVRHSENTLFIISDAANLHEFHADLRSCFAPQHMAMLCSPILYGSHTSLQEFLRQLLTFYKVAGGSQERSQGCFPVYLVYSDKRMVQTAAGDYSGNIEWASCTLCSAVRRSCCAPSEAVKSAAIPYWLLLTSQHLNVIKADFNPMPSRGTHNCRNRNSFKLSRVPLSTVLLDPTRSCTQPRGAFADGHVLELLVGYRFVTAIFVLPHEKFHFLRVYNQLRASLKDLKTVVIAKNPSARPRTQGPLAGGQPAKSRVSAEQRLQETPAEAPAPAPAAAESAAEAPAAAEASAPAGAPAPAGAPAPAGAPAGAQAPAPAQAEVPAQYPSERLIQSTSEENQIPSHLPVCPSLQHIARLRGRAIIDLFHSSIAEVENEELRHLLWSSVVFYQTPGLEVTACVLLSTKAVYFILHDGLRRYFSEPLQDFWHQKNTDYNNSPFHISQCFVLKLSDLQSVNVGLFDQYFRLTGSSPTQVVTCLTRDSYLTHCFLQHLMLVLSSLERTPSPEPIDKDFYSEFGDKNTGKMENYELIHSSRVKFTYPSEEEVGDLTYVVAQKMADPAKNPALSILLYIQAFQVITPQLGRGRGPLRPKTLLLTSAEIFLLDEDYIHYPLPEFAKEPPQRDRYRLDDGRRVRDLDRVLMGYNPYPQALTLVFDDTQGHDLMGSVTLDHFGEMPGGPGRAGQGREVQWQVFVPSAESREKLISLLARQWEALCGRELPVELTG

On to `Cl.Fc1ccc2ccn(CC3=NCCN3)c2c1`, for which the Ki (usually a dissociation constant, usually derived from enzyme kinetics or from competition with a known ligand) in assay [1] was 87.83 nM; in assay [2], 240 nM; in assay [3], 789 nM; in assay [4] it was 15.9 nM.

With `Brc1cccc2c1ccn2CC1=NCCN1.Cl`, the Ki in assay [1] came out at 257.7 nM; in assay [2], 179 nM; in assay [3], 468 nM; in assay [4], 84.4 nM.

As to `Cl.Clc1ccc2ccn(CC3=NCCN3)c2c1`, the Ki in assay [1] stood at 228.7 nM; in assay [2] it was 48.5 nM; in assay [3], 5580 nM; in assay [4] it was 94.5 nM.

Take `CCc1cccc2ccn(CC3=NCCN3)c12.Cl`: the Ki in assay [1] turned out to be 439.4 nM; in assay [2], 880 nM; in assay [3], 45800 nM; in assay [4], 71.7 nM.

For `Br.COc1cccc2ccn(CC3=NCCN3)c12`, the Ki in assay [1] came out at 394.2 nM; in assay [2], 2470 nM; in assay [3], 588000 nM; in assay [4], 280 nM.

Turning to `Brc1cccc2ccn(CC3=NCCN3)c12.Cl`, the Ki in assay [1] was 7.91 nM; in assay [2], 254 nM; in assay [3] it was 79.2 nM; in assay [4], 18.3 nM.

Take `Cl.Fc1cccc2c1ccn2CC1=NCCN1`: the Ki in assay [1] is 27.56 nM; in assay [2] it was 249 nM; in assay [3] it was 14600 nM; in assay [4], 46.97 nM.

As for `Brc1ccc2c(ccn2CC2=NCCN2)c1.Cl`, the Ki in assay [1] was 1348 nM; in assay [2], 30.3 nM; in assay [3], 10500 nM; in assay [4], 596.7 nM.

For the compound `Br.c1ccc(COc2cccc3ccn(CC4=NCCN4)c23)cc1`, the Ki in assay [1] amounted to 381.8 nM; in assay [2], 10400 nM; in assay [3], 36300 nM; in assay [4], 5241 nM.

With `Cl.Fc1ccc2c(ccn2CC2=NCCN2)c1`, the Ki in assay [1] turned out to be 306.7 nM; in assay [2] it was 66.3 nM; in assay [3] it was 32.1 nM; in assay [4] it was 68.43 nM.

Consider `Cl.Fc1cccc2ccn(CC3=NCCN3)c12`, for which the Ki in assay [1] was 36.7 nM; in assay [2] it was 32.1 nM; in assay [3], 9630 nM; in assay [4], 16.57 nM.
